Assay results: ChEMBL document CHEMBL4732192, “Discovery and optimization of a novel CNS penetrant series of mGlu PAMs based on a 1,4-thiazepane core with in vivo efficacy in a preclinical Parkinsonian model” (Bioorg Med Chem Lett, 2021)
≈ marks a conversion by molar mass, not a printed value.

Key:
[1] = biological target: Metabotropic glutamate receptor 4 (Rattus norvegicus) (UniProt P31423); assay: Positive allosteric modulation of rat mGlu4 receptor expressed in HEK293 cells co- expressing GIRK channel by thallium mobilization assay relative to control; type: cell-based
[2] = biological target: Metabotropic glutamate receptor 4 (Rattus norvegicus, UniProt P31423); assay: Positive allosteric modulation of rat mGlu4 receptor expressed in HEK293 cells co- expressing GIRK channel by thallium mobilization assay; type: cell-based
[3] = Protein binding in rat plasma assessed as unbound fraction; type: ADME, cell-free
[4] = Protein binding in human plasma assessed as unbound fraction; type: ADME, cell-free
[5] = Protein binding in rat brain assessed as unbound fraction; type: ADME, tissue-based
[6] = Ratio of drug level in rat brain to plasma assessed as permeability coefficient at 0.2 mg/kg, iv; type: ADME, organism-based
[7] = Ratio of drug level in rat brain to plasma assessed as unbound permeability coefficient at 0.2 mg/kg, iv; type: ADME, organism-based; conditions: read-out: K(p,uu,brain)
[8] = biological target: Metabotropic glutamate receptor 3 (Homo sapiens, UniProt Q14832); assay: Binding affinity to mGlu3 (unknown origin)
Rattus norvegicus [9] = assay: Reversal of haloperidol-induced catalepsy in Sprague-Dawley rat assessed as reduction in catalepsy at 30 mg/kg, ip and measured after 15 mins relative to untreated control; type: functional; conditions: 0.25 h
Rattus norvegicus [10] = assay: Reversal of haloperidol-induced catalepsy in Sprague-Dawley rat administered intraperitoneally and measured after 15 mins; type: functional, organism-based; conditions: dose 3-30 mg/kg
[11] = biological target: Metabotropic glutamate receptor 7 (Homo sapiens, UniProt Q14831); assay: Binding affinity to mGlu7 (unknown origin)
[12] = biological target: Metabotropic glutamate receptor 1 (Rattus norvegicus, UniProt P23385); assay: Displacement of [3H]quisqualate from mGluR1 from rat brain incubated for 60 mins by radiometric scintillation counting analysis; type: tissue-based
Rattus norvegicus [13] = assay: Reversal of haloperidol-induced catalepsy in Sprague-Dawley rat assessed as latency time for withdrawl at 30 mg/kg, ip and measured after 15 mins (reference value: 49.8 sec); type: functional; conditions: 0.25 h
Rattus norvegicus [14] = assay: Reversal of haloperidol-induced catalepsy in Sprague-Dawley rat assessed as latency time for withdrawl at 3 mg/kg, ip and measured after 15 mins (reference value: 49.8 sec); type: functional; conditions: 0.25 h
Rattus norvegicus [15] = assay: Reversal of haloperidol-induced catalepsy in Sprague-Dawley rat assessed as reduction in catalepsy at 10 mg/kg, ip and measured after 15 mins relative to untreated control; type: functional; conditions: 0.25 h
[16] = biological target: Metabotropic glutamate receptor 5 (Homo sapiens, UniProt P41594); assay: Binding affinity to mGlu5 (unknown origin)
Rattus norvegicus [17] = assay: Reversal of haloperidol-induced catalepsy in Sprague-Dawley rat assessed as latency time for withdrawl at 10 mg/kg, ip and measured after 15 mins (reference value: 49.8 sec); type: functional; conditions: 0.25 h
[18] = Kinetic solubility of compound; type: physicochemical; conditions: read-out: Kinetic_solubility
Rattus norvegicus [19] = assay: Reversal of haloperidol-induced catalepsy in Sprague-Dawley rat assessed as reduction in catalepsy at 3 mg/kg, ip and measured after 15 mins relative to untreated control; type: functional; conditions: 0.25 h
[20] = biological target: Metabotropic glutamate receptor 2 (Homo sapiens, UniProt Q14416); assay: Displacement of [3H]LY341495 from full length human recombinant mGluR2 expressed in Chem-1 cells incubated for 60 mins by radiometric scintillation counting analysis; type: cell-based
Rattus norvegicus [21] = assay: Reversal of haloperidol-induced catalepsy in ip dosed Sprague-Dawley rat assessed as reduction in catalepsy measured after 15 mins relative to untreated control; type: functional; conditions: 0.25 h
Rattus norvegicus [22] = assay: Reversal of haloperidol-induced catalepsy in ip dosed Sprague-Dawley rat assessed as latency time for withdrawl measured after 15 mins (reference value: 49.8 sec); type: functional; conditions: 0.25 h
[23] = filed as positive allosteric modulator

Sequence of Metabotropic glutamate receptor 4 (P31423 whole entry): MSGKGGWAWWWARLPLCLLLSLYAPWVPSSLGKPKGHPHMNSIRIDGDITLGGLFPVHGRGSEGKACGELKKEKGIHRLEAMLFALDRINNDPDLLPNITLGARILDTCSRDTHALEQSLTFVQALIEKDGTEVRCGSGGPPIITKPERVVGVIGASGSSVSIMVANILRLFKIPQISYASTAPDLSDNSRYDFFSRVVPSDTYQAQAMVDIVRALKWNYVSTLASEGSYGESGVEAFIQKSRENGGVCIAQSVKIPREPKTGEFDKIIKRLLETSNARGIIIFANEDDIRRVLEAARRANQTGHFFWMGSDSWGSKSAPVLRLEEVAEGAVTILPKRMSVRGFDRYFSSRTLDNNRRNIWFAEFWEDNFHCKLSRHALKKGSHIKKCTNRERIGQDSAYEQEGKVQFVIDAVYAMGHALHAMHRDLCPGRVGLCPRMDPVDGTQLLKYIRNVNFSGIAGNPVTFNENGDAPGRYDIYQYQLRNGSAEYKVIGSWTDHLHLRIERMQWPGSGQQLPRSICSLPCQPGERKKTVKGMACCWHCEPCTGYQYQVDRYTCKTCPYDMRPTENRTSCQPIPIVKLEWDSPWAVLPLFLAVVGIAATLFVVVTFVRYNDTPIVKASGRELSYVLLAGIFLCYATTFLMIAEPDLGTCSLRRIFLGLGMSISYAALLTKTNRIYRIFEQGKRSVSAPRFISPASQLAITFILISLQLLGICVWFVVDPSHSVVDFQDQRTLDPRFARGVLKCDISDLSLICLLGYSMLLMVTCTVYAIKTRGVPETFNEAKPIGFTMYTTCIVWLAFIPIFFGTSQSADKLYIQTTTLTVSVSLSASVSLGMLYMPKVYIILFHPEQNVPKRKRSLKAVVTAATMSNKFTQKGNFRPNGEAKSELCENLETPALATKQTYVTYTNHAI
Sequence of Metabotropic glutamate receptor 4 (Rattus norvegicus) (P31423 whole entry): as above
Sequence of Metabotropic glutamate receptor 3 (Q14832 whole entry): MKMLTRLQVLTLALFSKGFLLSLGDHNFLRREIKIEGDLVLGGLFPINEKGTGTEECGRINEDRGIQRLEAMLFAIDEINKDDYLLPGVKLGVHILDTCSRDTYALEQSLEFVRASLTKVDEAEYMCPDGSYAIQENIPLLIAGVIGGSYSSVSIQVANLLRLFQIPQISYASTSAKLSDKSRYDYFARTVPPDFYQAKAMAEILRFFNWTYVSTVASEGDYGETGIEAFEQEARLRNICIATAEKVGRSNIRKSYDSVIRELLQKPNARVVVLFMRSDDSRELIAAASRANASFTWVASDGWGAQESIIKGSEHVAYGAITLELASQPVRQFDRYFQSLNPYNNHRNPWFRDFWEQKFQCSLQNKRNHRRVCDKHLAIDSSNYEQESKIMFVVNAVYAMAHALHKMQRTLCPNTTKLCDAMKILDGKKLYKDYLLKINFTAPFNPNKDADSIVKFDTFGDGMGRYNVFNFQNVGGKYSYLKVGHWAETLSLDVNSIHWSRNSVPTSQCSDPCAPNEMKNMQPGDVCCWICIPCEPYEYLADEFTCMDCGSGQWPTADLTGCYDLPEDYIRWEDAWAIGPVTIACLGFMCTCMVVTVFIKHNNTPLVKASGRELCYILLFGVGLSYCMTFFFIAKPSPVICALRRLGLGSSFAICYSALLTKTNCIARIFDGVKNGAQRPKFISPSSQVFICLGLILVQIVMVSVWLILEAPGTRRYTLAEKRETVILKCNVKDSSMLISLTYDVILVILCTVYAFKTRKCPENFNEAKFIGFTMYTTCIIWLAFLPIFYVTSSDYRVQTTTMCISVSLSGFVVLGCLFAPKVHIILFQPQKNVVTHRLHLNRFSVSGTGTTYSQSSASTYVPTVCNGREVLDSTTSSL
Sequence of Metabotropic glutamate receptor 7 (Q14831 whole entry): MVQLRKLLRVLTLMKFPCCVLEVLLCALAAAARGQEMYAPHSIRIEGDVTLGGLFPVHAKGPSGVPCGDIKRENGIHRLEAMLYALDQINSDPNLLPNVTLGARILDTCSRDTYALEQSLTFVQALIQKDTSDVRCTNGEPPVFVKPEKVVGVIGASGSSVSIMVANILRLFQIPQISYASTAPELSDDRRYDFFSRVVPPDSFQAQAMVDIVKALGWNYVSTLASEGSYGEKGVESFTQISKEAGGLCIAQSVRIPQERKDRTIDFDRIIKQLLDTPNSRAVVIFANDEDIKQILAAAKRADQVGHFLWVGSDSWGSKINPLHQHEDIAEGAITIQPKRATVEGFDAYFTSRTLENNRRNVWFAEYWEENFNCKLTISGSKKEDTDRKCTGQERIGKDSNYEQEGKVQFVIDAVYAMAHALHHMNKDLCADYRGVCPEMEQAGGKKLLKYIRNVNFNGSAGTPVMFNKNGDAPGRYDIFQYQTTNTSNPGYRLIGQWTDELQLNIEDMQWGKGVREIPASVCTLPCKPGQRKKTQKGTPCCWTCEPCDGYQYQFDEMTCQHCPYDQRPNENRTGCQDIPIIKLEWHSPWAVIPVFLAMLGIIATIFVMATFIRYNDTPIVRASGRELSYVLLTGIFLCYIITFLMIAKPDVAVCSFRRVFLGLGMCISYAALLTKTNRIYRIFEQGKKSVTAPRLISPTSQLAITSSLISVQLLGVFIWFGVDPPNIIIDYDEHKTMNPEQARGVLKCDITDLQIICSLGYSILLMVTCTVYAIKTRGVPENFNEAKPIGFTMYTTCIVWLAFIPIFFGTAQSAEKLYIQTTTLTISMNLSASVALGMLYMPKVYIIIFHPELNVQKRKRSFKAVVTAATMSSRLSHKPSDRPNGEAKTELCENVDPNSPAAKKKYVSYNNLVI
Sequence of Metabotropic glutamate receptor 1 (P23385 whole entry): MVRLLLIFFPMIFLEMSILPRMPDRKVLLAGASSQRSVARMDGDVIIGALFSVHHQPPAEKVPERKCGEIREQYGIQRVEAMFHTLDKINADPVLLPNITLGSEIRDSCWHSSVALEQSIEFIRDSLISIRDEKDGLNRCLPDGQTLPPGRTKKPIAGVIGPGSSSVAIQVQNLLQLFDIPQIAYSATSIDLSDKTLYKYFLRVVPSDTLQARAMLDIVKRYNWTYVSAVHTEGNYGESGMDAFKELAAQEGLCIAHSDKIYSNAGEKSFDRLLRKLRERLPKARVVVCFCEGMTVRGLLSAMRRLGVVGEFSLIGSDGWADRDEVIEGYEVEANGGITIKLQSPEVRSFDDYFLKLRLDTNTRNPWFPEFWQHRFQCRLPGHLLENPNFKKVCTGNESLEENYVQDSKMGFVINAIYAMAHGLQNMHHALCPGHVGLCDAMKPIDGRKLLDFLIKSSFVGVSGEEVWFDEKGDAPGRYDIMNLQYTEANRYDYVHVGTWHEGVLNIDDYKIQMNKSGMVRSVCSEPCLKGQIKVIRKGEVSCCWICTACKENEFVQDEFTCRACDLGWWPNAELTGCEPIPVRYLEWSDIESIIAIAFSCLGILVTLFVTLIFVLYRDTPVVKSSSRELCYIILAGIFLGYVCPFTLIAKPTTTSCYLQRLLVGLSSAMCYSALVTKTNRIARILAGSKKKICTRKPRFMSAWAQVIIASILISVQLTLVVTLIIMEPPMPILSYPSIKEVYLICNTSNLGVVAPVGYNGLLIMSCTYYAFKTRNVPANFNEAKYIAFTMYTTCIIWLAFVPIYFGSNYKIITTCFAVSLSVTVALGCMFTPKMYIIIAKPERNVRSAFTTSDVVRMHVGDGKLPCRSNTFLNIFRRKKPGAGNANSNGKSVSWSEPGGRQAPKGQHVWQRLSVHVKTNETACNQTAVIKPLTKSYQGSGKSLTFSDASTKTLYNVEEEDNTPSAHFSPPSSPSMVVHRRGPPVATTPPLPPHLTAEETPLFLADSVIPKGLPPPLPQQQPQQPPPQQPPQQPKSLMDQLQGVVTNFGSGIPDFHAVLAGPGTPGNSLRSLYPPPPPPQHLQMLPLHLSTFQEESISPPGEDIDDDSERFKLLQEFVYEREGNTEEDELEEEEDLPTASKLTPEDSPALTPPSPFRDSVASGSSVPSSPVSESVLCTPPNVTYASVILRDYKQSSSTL
Sequence of Metabotropic glutamate receptor 2 (Q14416 whole entry): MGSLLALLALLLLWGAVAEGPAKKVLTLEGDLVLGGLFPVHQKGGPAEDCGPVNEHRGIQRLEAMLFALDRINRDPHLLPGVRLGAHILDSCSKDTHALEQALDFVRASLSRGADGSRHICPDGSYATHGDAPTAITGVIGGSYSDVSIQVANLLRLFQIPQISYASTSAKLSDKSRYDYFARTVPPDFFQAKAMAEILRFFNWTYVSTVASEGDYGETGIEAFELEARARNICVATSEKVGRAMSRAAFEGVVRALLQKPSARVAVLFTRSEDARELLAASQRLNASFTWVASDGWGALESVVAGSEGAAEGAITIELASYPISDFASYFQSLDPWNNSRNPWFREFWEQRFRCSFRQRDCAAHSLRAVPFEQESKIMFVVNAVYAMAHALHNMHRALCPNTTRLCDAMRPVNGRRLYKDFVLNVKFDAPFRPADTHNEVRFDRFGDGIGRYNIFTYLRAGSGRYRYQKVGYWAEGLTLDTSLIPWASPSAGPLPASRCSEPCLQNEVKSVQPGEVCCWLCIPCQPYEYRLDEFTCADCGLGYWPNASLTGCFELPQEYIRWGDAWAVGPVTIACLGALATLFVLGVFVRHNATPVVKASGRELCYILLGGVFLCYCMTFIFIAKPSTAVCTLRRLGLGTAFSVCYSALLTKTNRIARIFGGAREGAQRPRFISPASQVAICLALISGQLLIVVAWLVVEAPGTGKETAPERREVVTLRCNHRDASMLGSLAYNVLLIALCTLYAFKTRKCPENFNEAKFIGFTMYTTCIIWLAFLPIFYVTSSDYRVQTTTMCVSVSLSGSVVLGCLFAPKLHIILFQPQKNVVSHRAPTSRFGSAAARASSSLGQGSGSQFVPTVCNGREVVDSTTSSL

SMILES	%max [1, 23] [%]	EC50 [2] [nM]	other results
O=C1CCSC[C@@H](C(=O)Nc2cc(Br)cc(Br)c2)N1	97	35	fraction unbound [3]: 0.011; Kp [6]: 0.19; fraction unbound [4]: 0.007; fraction unbound [5]: 0.006; Kp uu [7]: 0.1
O=C1CCSC[C@@H](C(=O)Nc2cc(Cl)cc(Br)c2)N1	108	33	IC50 [8]: > 10 µM; fraction unbound [3]: 0.018; inhibition in vivo at 30 mg/kg (Rattus norvegicus [9]): 55.4%; Kp [6]: 0.45; fraction unbound [4]: 0.011; fraction unbound [5]: 0.028; Activity (Rattus norvegicus [10]): Dose-dependent effect; IC50 [11]: > 10 µM; IC50 [12]: > 10 µM; Time (Rattus norvegicus [13]): 22.2 s; Kp uu [7]: 0.7; Time (Rattus norvegicus [14]): 36.6 s; inhibition in vivo at 10 mg/kg (Rattus norvegicus [15]): 42.6%; IC50 [16]: > 10 µM; Time (Rattus norvegicus [17]): 28.6 s; solubility kinetic [18]: 6.2 µM (≈ 2.25 µg/mL); inhibition in vivo at 3 mg/kg (Rattus norvegicus [19]): 26.5%; IC50 [20]: > 10 µM
O=C1CCSC[C@@H](C(=O)Nc2cccc(Br)c2)N1	98	6200	–
O=C1CCSC[C@@H](C(=O)Nc2cc(Cl)cc(Cl)c2)N1	88	273	–
O=C1CCSC[C@@H](C(=O)Nc2cc(C(F)(F)F)cc(C(F)(F)F)c2)N1	102	950	–
Cc1cc(Cl)cc(NC(=O)[C@@H]2CSCCC(=O)N2)c1	87	1090	–
O=C1CCSC[C@H](C(=O)Nc2cccc(Br)c2)N1	–	> 30000	–
O=C1CCSC[C@@H](C(=O)Nc2cc(F)cc(Br)c2)N1	101	351	–
O=C(NC1CC(F)(F)C1)c1nsc2cc(Nc3n[nH]c4cccnc34)ccc12	–	–	solubility kinetic [18]: 0.9 µM (≈ 0.36 µg/mL)
Cc1cc(C)cc(NC(=O)[C@@H]2CSCCC(=O)N2)c1	–	> 10000	%max [1]: < 30%
Fc1ccc(Nc2n[nH]c3cccnc23)cc1Cl	–	–	inhibition (INH) (Rattus norvegicus [21]): 64%; Time (Rattus norvegicus [22]): 17.9 s
O=C1CCSC[C@@H](C(=O)Nc2cc(F)cc(Cl)c2)N1	112	278	–

Further lines, with some results ahead:

%max [1, 23] [%]	EC50 [2] [nM]	SMILES	other results
102	558	O=C1CCSC[C@@H](C(=O)Nc2cc(F)cc(I)c2)N1	–
120	148	O=C1CCSC[C@@H](C(=O)Nc2cccc(Cl)c2)N1	fraction unbound [3]: 0.02; fraction unbound [4]: 0.03; fraction unbound [5]: 0.01
102	8900	O=C1CCSC[C@@H](C(=O)Nc2cc(F)cc(F)c2)N1	–
104	76	O=C1CCSC[C@H](C(=O)Nc2cc(Br)cc(Br)c2)N1	–
98	64	O=C1CCSC[C@H](C(=O)Nc2cc(Cl)cc(Br)c2)N1	–
101	115	O=C1CCSC[C@@H](C(=O)Nc2cc(Br)cc(I)c2)N1	–
